Measurements taken from US6337397B1, “Pyrimidine derivatives and their salts, useful for making benzoxazepine derivatives” (Suntory Limited, priority 1995, dated 2002).
Like-named read-outs stand apart in the source and are kept apart here.

Legend:
male Wistar rats = test: Anticonflict action, NaCl-Lick conflict method; format: in vivo; conditions: Rattus norvegicus, po, 1 hour before the test; number of licks in 5 minutes of 2% saline; rats deprived of water for 48 hours; read-out: Minimum effective dosage
Experimental: The anticonflict action of the compounds of the general formulae (I), (II), and (III) was evaluated in accordance with the NaCl-Lick conflict method of Tanga et al. (Pharmacol., Biochem., Behav., vol. 32, pp. 773-776, 1989). That is, six-week old male Wistar rats in groups of six to 10 were deprived of water for 48 hours and placed in an experimental apparatus placed in a soundproof box (apparatus made of acrylic resin, 20×20×30 cm, provided with a drinking outlet having a diameter of 1 cm at height of 8 cm from the floor, designed to be able to measure the number of drops per unit hour by a drinkometer), and the anticonflict action of the medicament was evaluated using as an indicator the number of drops (number of licks) in 5 minutes from the start of drinking of 2% saline. The tested medicament was orally administered in an amount of 0.2 ml/100 g body weight 1 hour before the start of the test.

[1] = target: T1, serotonin 5-HT1A receptor (Rattus norvegicus, UniProt P19327); test: Affinity with serotonin receptor, [3H]8-OH-DPAT binding; design: species or system male Wistar rats; conditions: for D2/5-HT1A: ratio of IC50 (D2) to IC50 (5-HT1A)
T1 construct: the hippocampuses extracted from male Wistar rats were homogenized; from tissue; host or cells: rat hippocampus membrane homogenate
T1 sequence (P19327 1-422): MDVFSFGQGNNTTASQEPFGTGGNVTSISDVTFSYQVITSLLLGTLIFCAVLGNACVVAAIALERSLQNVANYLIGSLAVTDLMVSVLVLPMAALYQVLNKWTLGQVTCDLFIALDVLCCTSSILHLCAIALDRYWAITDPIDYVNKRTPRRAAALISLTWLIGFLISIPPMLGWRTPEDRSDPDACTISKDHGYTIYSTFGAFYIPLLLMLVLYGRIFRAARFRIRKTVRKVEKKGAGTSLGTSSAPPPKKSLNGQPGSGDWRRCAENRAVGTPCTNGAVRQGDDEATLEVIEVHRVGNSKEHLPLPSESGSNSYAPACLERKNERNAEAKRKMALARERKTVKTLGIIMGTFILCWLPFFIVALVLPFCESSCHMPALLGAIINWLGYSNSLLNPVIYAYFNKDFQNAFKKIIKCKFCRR
Experimental: The affinity of the compounds of the general formulas (I), (II), and (III) with a serotonin receptor was evaluated in accordance with the method of S. T. Peuroutka et al. (J. Neurochem., vol. 47, pp. 529-540, 1986). That is, the hippocampuses extracted from male Wistar rats were homogenized while adding 50 mM tris-phosphate buffer (pH 7.7). The homogenate was centrifuged at […] and 40000×g for 10 minutes. The same buffer was added to the obtained precipitate, then this was homogenized again and was similarly centrifuged to obtain the precipitate. This homogenization-centrifugation operation was repeated two times to obtain a final precipitate to which was then added 10 uM of N-methyl-N-2-propynylbenzylamine (Pargyline), 4 mM of calcium chloride, and 0.1% ascorbic acid contained in a 50 mM tris-phosphate buffer (ph 7.7). This was then homogenized to prepare the serotonin receptor.
For the binding experiment, 0.4 nM of [3H]2-di-n-propylamino-8-hydroxy-1,2,3,4-tetrahydronapthalene (8-DPAT; 8-hydroxy-N,N-dipropyl-2-aminotetetrilin) was used, various concentrations of test samples were added to a system of 0.25 mg/ml of protein or a total of 0.25 ml, and these were incubated at 25° C. for 30 minutes. A Whatman GF/C filter was used to filter each of the reaction solutions, then the filter was washed by 20 mM tris-phosphate buffer (pH 7.7). The serotonin receptor was trapped by the filter and the radio activity of the 8-OH-DAPT bonded to it was measured to find the degree of binding. The 50% inhibiting concentration of binding affinity (IC50) was calculated from the degrees of binding in the various sample concentrations. […] The IC50 values of typical compounds are shown together with the IC50 values with respect to the dopamine D2 receptor.

dopamine D2 receptor = target: T2, dopamine D2 receptor (Rattus norvegicus, UniProt P61169); test: Affinity with dopamine D2 receptor, [3H]Raclopride binding; design: species or system male Wistar rats; conditions: 1.0 nM [3H]Raclopride, rat corpus striatum preparation, 25° C., 60 minutes
T2 construct: the corpus striatums excised from male Wistar rats were homogenized; from tissue; host or cells: rat corpus striatum membrane homogenate
T2 sequence (P61169 whole entry): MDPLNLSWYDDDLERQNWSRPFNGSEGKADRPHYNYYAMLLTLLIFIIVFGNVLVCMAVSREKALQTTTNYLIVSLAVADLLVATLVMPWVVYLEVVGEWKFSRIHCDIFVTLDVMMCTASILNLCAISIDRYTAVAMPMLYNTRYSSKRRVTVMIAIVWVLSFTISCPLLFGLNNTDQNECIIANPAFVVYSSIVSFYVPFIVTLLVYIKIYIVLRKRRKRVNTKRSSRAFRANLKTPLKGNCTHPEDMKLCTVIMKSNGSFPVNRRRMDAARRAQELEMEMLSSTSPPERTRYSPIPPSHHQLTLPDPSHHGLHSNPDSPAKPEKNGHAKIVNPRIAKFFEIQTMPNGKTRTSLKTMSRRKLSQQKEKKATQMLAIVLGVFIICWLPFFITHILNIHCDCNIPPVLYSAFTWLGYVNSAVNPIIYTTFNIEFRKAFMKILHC
Experimental: The affinity of the compounds of the general formulas (I), (II), and (III) with a dopamine D2 receptor was evaluated in accordance with the method of Kakohler et al. (Biochem. Pharmacol., vol. 34, pp. 2251-2259, 1985). That is, the corpus striatums excised from male Wistar rats were homogenized with the addition of 120 mM sodium chloride, 5 mM potassium chloride, 2 mM calcium chloride, 1 mM magnesium chloride, and 0.01% ascorbic acid contained in 50 mM tris-phosphate buffer (pH 7.7). The homogenate was centrifuged at […] and 35000×g for 10 minutes. The same buffer was added to the resultant precipitate,then this was homogenized again and was similarly centrifuged to obtain the precipitate. The same buffer was added to this precipitate which was then again homogenized to prepare the dopamine D2 receptor.
For the binding experiment, use was made of 1.0 nM of [3H]3,5-dichloro-N-[(1-ethyl-2-pyrrolidinyl)methyl]-6-hydroxy-o-anisamide (Raclopride), various concentrations of test samples were added to a system of 0.34 mg/ml of protein or a total of 0.25 ml, incubation was performed at 25° C. for 60 minutes, then the radioactivity was measured in the same way as in the Evaluation Example 1 to find the degree of binding.
The 50% inhibiting concentration of binding affinity (IC50) was calculated from the degrees of binding at various concentrations of the added samples. […] The IC50 values of typical compounds are shown together with the IC50 values for the serotonin receptor.

Wistar male rats = test: Ischemic brain tissue damage, transient right middle cerebral artery occlusion (MCAO) model; format: in vivo; conditions: Rattus norvegicus, sc, 240 h; s.c., immediately after occlusion; 60 minutes occlusion; brain tissue damage 10 days after restart of blood flow (number of benzodiazepine bindings); read-out: Minimum effective dosage
Experimental: The evaluation of the efficacy on ischemic brain damage of the compounds of the general formulae (I), (II), and (III) was performed using the transient right middle cerebral artery occlusion (MCAO) model of Koizumi et al. (Jap. J. Stroke, vol. 8, pp. 1 to 8, 1986). That is, 10 to 11 week old Wistar male rats were used and the right middle cerebral artery was temporarily obstructed for 60 minutes. 10 days after the restart of the blood flow, the brains were excised and the degree of brain tissue damage of the cerebral cortex and corpus striatum of the obstructed side were evaluated by the damage marker of the number of benzodiazepine bindings. The tested drugs were dissolved in physiological saline and administered subcutaneously at the backs of the rats immediately after the right middle cerebral artery occlusion. As a control, physiological saline of […] body weight was similarly administered.

[2] = Acute toxicity after oral administration; conditions: rat, in vivo; 24 hours after oral administration, six-week old male rats
From the text: This value is over 50 times or more of the expected clinical dosage and therefore, it is judged that the safety of the compounds according to the present invention is high.

[3] = 0.4 nM [3H]8-OH-DPAT, rat hippocampus preparation, 25° C., 30 minutes, read-out: IC50 (5-HT1A)

Row | SMILES | minimal effective dose (male Wistar rats) | melting point | D2/5-HT1A [1] | IC50 (dopamine D2 receptor) | also measured
1 | O=C1c2ccccc2OC=CN1CCCCN1CCN(c2ccccn2)CC1 [Example 32, 4,5-dihydro-4-(4-(4-(2-pyridyl)piperazin-1-yl)butyl)-1,4-benzoxazepin-5-one] | 30 mg/kg | 150 to 151 °C | – | – | –
2 | COc1ccc2c(c1)OC=CN(CCCCN1CCN(c3ncccn3)CC1)C2=O [Example 33, 4,5-dihydro-8-methoxy-4-(4-(4-(2-pyrimidinyl)piperazin-1-yl)butyl)-1,4-benzoxazepin-5-one] | 10 mg/kg | 156 to 158 °C | – | – | –
3 | CC1=COc2ccccc2C(=O)N1CCCCN1CCN(c2ncccn2)CC1 [Example 34, 4,5-dihydro-3-methyl-4-(4-(4-(2-pyrimidinyl)piperazin-1-yl)butyl)-1,4-benzoxazepin-5-one] | 30 mg/kg | 141 to 142 °C | – | – | –
4 | CC1=COc2ccccc2C(=O)N1CCCCN1CCN(c2cccc(Cl)n2)CC1 [Example 35, 4-(4-(4-(2-chloropyridin-6-yl)piperazin-1-yl)butyl)-4,5-dihydro-3-methyl-1,4-benzoxazepin-5-one] | – | 166 to 168 °C | 196 | 294 nM | IC50 [1, 3]: 1.5 nM
5 | CC1=COc2cc(C)ccc2C(=O)N1CCCCN1CCN(c2cccc(C)c2)CC1 [Example 37] | – | 113 to 115 °C | – | – | –
6 | COc1ccccc1N1CCN(CCCCN2C(=O)c3ccc(C)cc3OC=C2C)CC1 [Example 38, 4,5-dihydro-3,8-dimethyl-4-(4-(4-(2-methoxyphenyl)piperazin-1-yl)butyl)-1,4-benzoxazepin-5-one] | – | 88 to 90 °C | – | – | –
7 | CC1=COc2ccc(C)cc2C(=O)N1CCCCN1CCN(c2ncc(F)c(N)n2)CC1 [Example 40, 4-(4-(4-(4-amino-5-fluoropyrimidin-2-yl)piperazin-1-yl)butyl)-4,5-dihydro-3,7-dimethyl-1,4-benzoxazepin-5-one] | – | 243 to 245 °C | – | – | –
8 | O=C1c2ccccc2OC=C(Cl)N1CCCCN1CC=C(c2ncccn2)CC1 [Example 56, 3-chloro-4,5-dihydro-4-(4-(4-(2-pyrimidinyl)-1,2,5,6-tetrahydropyridin-1-yl)butyl)-1,4-benzoxazepin-5-one] | – | – | 358 | 494 nM | IC50 [1]: 1.38 nM; minimal effective dose (Wistar male rats): 1 mg/kg; LD50 at 24 h [2]: ≥ 100 mg/kg
9 | O=C1c2ccccc2OC=C(Cl)N1CCCCN1CC=C(c2ccccn2)CC1 [Example 82] | 30 mg/kg | – | 84 | 128 nM | IC50 [1, 3]: 0.47 nM; minimal effective dose (Wistar male rats): 0.3 mg/kg
